The results in this text go back to the OPERA property sets (Mansouri et al. 2018).

The structures appear in SMILES notation.

`COc1ccncn1`: the logP turned out to be 0.54.

As to `CCc1nccnc1OC`, the logP stood at 1.8.

`NC(=O)c1cncnc1`: the logP is -0.92.

With `CCOc1nccnc1C`, the log partition coefficient (logP) is 1.82.

Regarding `COC(=O)c1cccnn1`, the logP is -0.43.

On to `CN(C)c1ccncn1`, for which the logP turned out to be 0.58.

For `Fc1cncc(F)n1`, the logP amounted to 0.74.

Turning to `CCOc1ncccn1`, the logP stood at 0.74.

With `NC(=O)c1ncccn1`, the log partition coefficient (logP) was -1.2.

`CCOC(=O)c1ncccn1` had a logP of -0.31.

`Fc1ncccn1` came in with a logP of 0.02.

`COC(=O)c1ncccn1` returned a logP of -0.71.

As to `CN(C)c1cncnc1`, the logP was 0.46.

`Nc1cnc(Cl)cn1` displayed a logP of 0.67.

As for `CCOC(=O)c1ccnnc1`, the logP worked out at 0.23.

The compound `N#Cc1ncccn1` registered a logP of -0.31.

Turning to `COc1ccnnc1`, the logP is -0.31.

`Nc1ccncn1` showed a logP of -0.25.

With `N#Cc1ncc(Cl)nc1C#N`, the logP worked out at 0.95.

Compound `Cc1cncnc1` registered a logP of 0.01.

In turn, `N#Cc1ccnnc1` gave a logP of -0.63.

Compound `COC(=O)c1ccncn1` showed a logP of -0.27.

`CCOc1cccnn1` showed a logP of 0.63.

Take `COc1cccnn1`: the logP is 0.08.

Compound `CCOc1cncnc1` came in with a logP of 0.56.

`CC(=O)Nc1ccncn1`: the logP came out at 0.03.

Turning to `NC(=O)c1ccnnc1`, the logP was -0.96.

`Cc1ncccn1` returned a logP of -0.05.

In the case of `CCOC(=O)c1cncnc1`, the logP is 0.52.

Turning to `COC(=O)c1ccoc1`, the logP is 1.28.

Compound `COc1cncnc1` returned a log partition coefficient (logP) of 0.07.

`Cc1ccnnc1` registered a logP of -0.32.

Regarding `Clc1ncccn1`, the logP was determined as 0.36.

`Clc1cccnn1` displayed a logP of 0.1.

The compound `CCCCc1nc(C#N)c(C#N)nc1C` gave a logP of 2.3.

In the case of `NC(=O)c1cccnn1`, the logP was -0.73.

The compound `Cc1cccnn1` had a logP of -0.35.

`COC(=O)c1cncnc1` returned a logP of 0.03.

`COC(=O)c1ccnnc1`: the logP is -0.27.

Compound `CC(=O)Nc1cncnc1` yielded a lipophilicity (logP) of -0.22.

Regarding `CN(C)c1ncccn1`, the logP was 1.07.

Compound `Nc1ccnnc1` displayed a logP of -0.53.

As for `CSc1ncccn1`, the log partition coefficient (logP) was determined as 1.01.

On to `NC(=O)c1ccncn1`, for which the lipophilicity (logP) was -0.68.
